Measurements from patent US7476729B2, “Dbait and uses thereof” (Institut Curie, priority 2003, dated 2009).
Entries after “also recorded” stand apart in the source; their conditions may differ.

Key:
[1] = system: p53 serine 15 phosphorylation in GMA32 cells; assay: Western blot of p53 serine 15 phosphorylation in GMA32 cells; format: cell-based, Chinese hamster; conditions: GMA32, Dbait with lipofectamine, no irradiation or mitotic inhibitor
Description: Further experiment was carried out in order to look for evidence of DNA damage signaling. The protein p53 is a well known major protein in mediating DNA damage signaling and in coordinating appropriate responses (DNA repair, apoptosis, etc.) by changing its phosphorylation status. In particular, the phosphorylation of serine 15 residue is involved in the interaction with MDM2 protein which acts as a feed back control Thus, the phosphorylation status of the serine 15 of p53 was assessed by Western blot.
For Western blot analysis, cells were lysed in Laemmli buffer. Equal amounts of lysates were resolved in 12% polyacrylamide gels. Proteins were transferred to nitrocellulose membranes, which were blocked with 5% nonfat milk (1 hour) before overnight incubation with anti-p53Ser15 antibody (9284, Cell Signaling) diluted 500 folds in TBST buffer (10 mM Tris-HCl pH7.5, 150 mM NaCl, 0.1% Tween 20) containing 5% nonfat milk. Blots were then incubated with horseradish peroxidase-conjugated goat anti-rabbit IgG secondary antibodies (P0448, Dako) diluted 1/5000 in TBST. Protein-antibody complexes were detected by enhanced chemiluminescence (RPN2106 ECL, Amersham).

Ku complex = target: T1, Ku complex (Homo sapiens, UniProt P12956+P13010); assay: Band-shift assay with Hep2 nuclear protein extracts; format: binding; conditions: 10 nM 32P radio-labelled Dbait, 0-320 ng/μL Hep2 nuclear proteins, 30° C., 10 minutes
T1 construct: in the presence of nuclear protein extracts from Hep2 cells according to standard protocol; endogenous in cells; host or cells: Hep2 cells (nuclear protein extract)
T1 sequence (P12956 whole entry): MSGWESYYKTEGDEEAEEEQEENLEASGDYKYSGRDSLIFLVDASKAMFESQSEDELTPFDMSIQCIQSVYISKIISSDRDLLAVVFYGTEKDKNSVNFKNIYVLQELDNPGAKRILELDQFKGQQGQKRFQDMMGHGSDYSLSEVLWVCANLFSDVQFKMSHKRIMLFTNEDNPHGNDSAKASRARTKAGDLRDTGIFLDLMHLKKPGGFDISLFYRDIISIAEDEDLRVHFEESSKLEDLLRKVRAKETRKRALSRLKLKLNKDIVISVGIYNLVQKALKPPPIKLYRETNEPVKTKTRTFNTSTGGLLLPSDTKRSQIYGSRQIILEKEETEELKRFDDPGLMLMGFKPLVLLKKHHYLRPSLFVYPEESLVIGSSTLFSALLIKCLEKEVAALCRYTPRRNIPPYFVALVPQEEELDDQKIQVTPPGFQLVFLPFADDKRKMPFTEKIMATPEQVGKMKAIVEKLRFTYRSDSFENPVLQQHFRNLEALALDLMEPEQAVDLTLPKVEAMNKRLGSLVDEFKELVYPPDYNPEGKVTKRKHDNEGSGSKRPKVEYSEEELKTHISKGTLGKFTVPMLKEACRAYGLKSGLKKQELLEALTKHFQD
T1 sequence (P13010 whole entry): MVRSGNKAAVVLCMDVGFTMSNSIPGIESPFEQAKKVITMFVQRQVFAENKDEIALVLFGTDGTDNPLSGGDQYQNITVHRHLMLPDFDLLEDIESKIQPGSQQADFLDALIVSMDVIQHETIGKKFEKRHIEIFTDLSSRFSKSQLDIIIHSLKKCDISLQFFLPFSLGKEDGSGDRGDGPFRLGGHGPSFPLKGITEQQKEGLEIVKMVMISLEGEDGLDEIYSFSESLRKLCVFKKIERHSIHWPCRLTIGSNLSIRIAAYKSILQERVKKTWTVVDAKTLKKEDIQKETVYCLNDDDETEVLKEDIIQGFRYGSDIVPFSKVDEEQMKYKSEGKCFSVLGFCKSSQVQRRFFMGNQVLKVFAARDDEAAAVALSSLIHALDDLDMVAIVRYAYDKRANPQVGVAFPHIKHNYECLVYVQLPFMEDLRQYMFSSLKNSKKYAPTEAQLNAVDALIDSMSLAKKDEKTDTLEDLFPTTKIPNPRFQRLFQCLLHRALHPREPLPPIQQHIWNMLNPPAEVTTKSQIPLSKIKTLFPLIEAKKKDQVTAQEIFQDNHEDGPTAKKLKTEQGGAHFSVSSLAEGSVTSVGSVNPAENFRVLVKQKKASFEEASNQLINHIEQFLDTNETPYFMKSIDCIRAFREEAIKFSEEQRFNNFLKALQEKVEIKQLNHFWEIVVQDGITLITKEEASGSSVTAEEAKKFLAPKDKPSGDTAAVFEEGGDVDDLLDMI
Description: As the first step to dissect the mechanism of action of Dbait molecules, a series of band-shift assays were carried out with different ^32P radio-labelled Dbait molecules in the presence of nuclear protein extracts from Hep2 cells according to standard protocol. Typically, 10 nM ^32P radio-labelled Dbait molecules were incubated in the presence of various concentrations of nuclear proteins (0, 10, 20, 40, 80, 160, and 320 ng/μL) at 30° C. for 10 minutes in TBE buffer. Then the samples were loaded on a 5% acrylamide native gel. The electrophoresis was run at 95V for 2 hours at 4° C. The gel was dried and scanned by phosphorimager (Molecular Dynamics).
For 32-bp Dbait molecules, the intensity of the retarded band 1 increases and then decreases as the concentration of protein increases, while the intensity of the retarded band 2 increases as a function of the concentration of nuclear protein extracts.
It is likely that band 1 has one Ku70/80 complex bound to the 16 to 32-bp Dbait, whereas the band 2 has two Ku70/80 complexes bound to the 32-bp Dbait molecules. Control experiments performed with purified Ku proteins confirmed this interpretation.

GMA32 cells [2] = assay: FACS analysis of sub-G1 cells (cell death) in GMA32 cells; format: cell-based, Chinese hamster; conditions: GMA32, 4.5 μg Dbait with lipofectamine, no irradiation or mitotic inhibitor
Description: (§1) The GMA32 Chinese hamster fibroblast cells permissive of DNA breaks were maintained in MEM medium (Gibco) supplemented with 1 mM sodium pyruvate, 2 mM glutamine, 1×MEM non essential amino acids, 1× penicillin/streptomycin and 10% horse serum. Typically, 2×10^5 to 4×10^5 cells were seeded in medium without antibiotics, in 5 cm diameter Petri dishes 24 hours before the transfection of different Dbait molecules (4.5 μg) with lipofectamine 2000 (LifeTechnologies) as transfection agent (in a 1:3 ratio), according to the manufacturer's instructions. At the end of the transfection the cells were either irradiated (4 Gy) or treated with mitotic inhibitors: nocodazole (200 nM), navelbine (100 nM) or taxol (200 nM).
(§2) About 16 hour later the drug was removed and the cells were allowed to recover. Cell irradiation was performed with γ-rays from a ^137Cs source. After a 24 hours recovery, the cells were collected and used either for FACS, western blot analyses or to determine the clonogenicity (survival) and the effect of each treatment.
The M1 phase represents the percentage of cells in sub-G1 stage indicative of cell death.
The experiments were performed with a FACS calibur flow cytometer (Becton Dickinson). Cells were collected, suspended in 1 ml of cold GM buffer (6.5 mM glucose, 137 mM NaCl, 5.4 mM KCl, 2 mM Na2HPO4, 1 mM KHPO4, 0.5 mM EDTA), and stored at 4° C. for at least 2 hours after addition of 3 ml of cold 100% ethanol.
At that stage, cells were eventually washed with 1×PBS, then stained for 30 minutes at room temperature in PI solution (50 μg/ml propidium iodide, 25 μg/ml RNase A in 1×PBS buffer). 10,000 events were analyzed with Cellquest software, and cell aggregates were gated out. The percentage of cells with a sub-G1 content of DNA was scored.

[3] = system: γ-H2AX foci in GMA32 cells; assay: Immunodetection of γ-H2AX DSB foci in GMA32 cells; format: cell-based, Chinese hamster; conditions: GMA32, Dbait with lipofectamine, no irradiation
Description: Under the same conditions, the immunodetection of DSB foci of γ-H2AX phosphorylated on serine 139 by γ-H2AX labeling (bright dots or patches in nuclei) was performed in the untreated GMA32 cells, the cells transfected alone, or transfected with different Dbait molecules by lipofectamine. The counterstaining of cell membranes and nuclei were achieved by FITC-DiOC6 and DAPI. Similar effects of Dbait molecules were observed (FIG. 3.2). […] This provides visual evidence that these Dbait molecules can be used for trapping proteins involved in DSB repair via NHEJ pathway.
For immunodetection, the cells were grown on coverslip in 5 cm diameter Petri dishes 24 hours before the transfection with different Dbait molecules. One day after the transfection, FITC-DiOC6 (Molecular probes) was added in the medium 5 minutes at 37° C. (to counterstain the membranes). After 3 washing cycles, the cells were fixated with 4% PFA for 20 minutes.
After additional washing, γ-H2AX phosphorylated on serine 139 (γ-H2AX) was detected with. rabbit anti-γ-H2AX antibody (4411-PC, Trevigen) diluted 1/100 in 1×PBS, 1% BSA. Cells were washed three times with 1×PBS, 0.5%, TritonX-100, then incubated for 1 hour at room temperature with goat anti-rabbit antibodies Alexa 594 (Molecular Probes) diluted 1/100 in 1×PBS, 1% BSA. Cells were visualized by epifluorescence microscopy.

GMA32 cells [4] = assay: Clonogenicity (clonal survival) assay in GMA32 cells with irradiation or mitotic inhibitors; format: cell-based, Chinese hamster
Description: as §1, §2
The effect of radiosensitization and chemosensitization of Dbait molecules in GMA32 cells was evaluated by clonogenicity (clonal survival) assay. For the clonogenicity assay, serial dilutions were made after counting the cells to seed 5 cm Petri dishes with different amounts of cells. The number of cells range from 100-200 (control cells) to 3000 (transfected or/and treated cells). Ten days after, the cells (forming clone) were fixed with 4% paraformaldehyde (20 minutes), then colored with methylene blue (15 minutes), and the number of clone in each plate (in triplicates) was scored.
These drugs are known as potent inhibitors of either polymerization or depolymerization of microtubules. Dbait32 (SEQ ID NO: 1) and Dait32H (SEQ ID NO: 1) were able to enhance to cytotoxic activity of these mitotic inhibitors.

[5] = system: γ-H2AX foci in Hela cells; assay: Immunodetection of DSB sites (γ-H2AX foci) in Hela cells after irradiation; format: cell-based, human; conditions: 2 μg Dbait, two hours after 2 Gy irradiation
Description: Transfection and irradiation protocoles were similar to those described above. For immunodetection, the cells were grown on surface coverslip in 5 cm diameter Petri dishes, transfected with 2 μg Dbait32H-FITC (SEQ ID NO: 1) molecules labeled with FITC with Superfect (Qiagene) according to the manufacturer's instruction. Four hours after the beginning of the transfection, cells were irradiated (2 Gy), then rest for 2 hours in the medium at 37° C. After 3 washing cycles, the cells were fixated with 2% PFA for 10 minutes. After one additional washings, the presence of γ-H2AX was detected with rabbit anti-γ-H2AX antibody (4411-PC, Trevigen) diluted 1/100 in 1×PBS, 1% BSA. Cells were washed three times with 1×PBS, 0.5% TritonX-100, then incubated for 1 hour at room temperature with rhodamine-conjugated goat anti-rabbit antibodies diluted 1/100 in 1×PBS, 1% BSA. Cells were visualized by epifluorescence microscopy.
Left panel: fluorescence of Dbait32H-FITC (SEQ ID NO: 1) (bright dots and patches) and DBS foci detected by immunofluorescence of γ-H2AX antibody in nuclei; Right panel: the same image of nuclei with DSB foci detected by immunofluorescence of γ-H2AX antibody and DAPI counterstaining. The arrows at the lower left corner show the absence of Dbait32H-FITC (SEQ ID NO: 1) and γ-H2AX signal in nucleus. […]

[6] = system: tumor tissues of K-Ras^V12G×Apc^1638N transgenic mouse; assay: Fluorescence microscopy of digestive tumor tissue of a treated transgenic mouse; format: in vivo; conditions: oral, with 5FU+CPT11 for three days, sacrificed two hours after the last treatment
Description: Tumor samples prepared from animals treated with Dbait molecules tagged by fluorescein (Dbait32H-FITC) (SEQ ID NO: 1) and 5FU+CPT11 were analysed using immunofluorescence staining methods. γ-H2AX labeled foci were costained with fluorescent Dbait molecules, in reminiscence of the in vitro finding (cf. example 3.3 and 4). […] Then the tumor tissues were sampled and frozen at −80° C. For the analysis, 5 μm histological samples were made from the frozen tumor tissues by cryostat. DNA repair foci were detected by immunofluorescence with polyclonal rabbit anti-γ-H2AX antibody (Trevigen) diluted 1/500 in PBS, then with goat anti-rabbit antibody tagged by cyanine 3 (Jackson) diluted 1/200 in PBS. The samples were also counterstained by DAPI Samples were visualized by epifluorescence microscopy. […] Similar pattern was found for γ-H2AX sites (FIG. 5.3, panel B, right). The co-localized Dbait32H-FITC (SEQ ID NO: 1) and γ-H2AX signals were almost observed.

Substance | phosphorylation of p53 serine 15 [1] | retarded bands in band-shift assay (Ku complex) | cell death (cells in sub-G1 stage) (GMA32 cells [2]) | γ-H2AX DSB foci (cell response) [3] | chemosensitization (clonal survival) (GMA32 cells [4]; GMA32, 200 nM nocodazole, 100 nM navelbine (vinorelbine) or 200 nM taxol (paclitaxel)) | radiosensitization (clonal survival) (GMA32 cells [4]; GMA32, 4 Gy irradiation) | persistence of DSB sites (γ-H2AX foci) [5] | distribution in tumor tissues [6]
Dbait32: 32-bp linear double-stranded Dbait molecule (SEQ ID NO: 1) (ACGCACGGGTGTTGGGTCGTTTGTTCGGATCT; DNA, backbone not given here; linear DNA duplex, phosphorothioates at blunt ends, exact count not readable, further chemistry not fully specified) | highly phosphorylated | two retarded band | Significant cell death | effectively trigger similar cell response as if DNA damages were occurred in nuclei | chemosensitization was also observed | radiosensitization to 4 Gy irradiation was observed |  | 
Dbait32H-FITC: Dbait32H labelled via a T tagged with fluorescein (DNA ACGCACGGGTGTTGGGTCGTTTGTTCGGATCT; DNA, backbone not given here; fluorescein on a T, hairpin, hexaethyleneglycol loop, phosphorothioate blunt end, further chemistry not fully specified) |  |  |  |  |  |  | DSB sites persisted | heterogeneously disseminated in tumor tissues; also recorded: preferential nucleus localization
